Where a name gives a salt, the structure may show the parent alone. ± gives the standard error.
How the values were obtained:
621-102 (TSC2-deficient) = assay: relative viability vs DMSO; higher = less cytotoxic; conditions: serum: 10% FBS, 72 h
621-103 (TSC2-rescued) = assay: as above; conditions: serum: 10% FBS, 72 h
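Further: immortalized renal angiomyolipoma cells stably carrying empty vector or TSC2, dosed in 384-well plates in DMEM, viability normalized to vehicle-treated wells within each plate.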

| SMILES | relative viability (621-102 (TSC2-deficient); 0.0001 µM) [%] | relative viability (621-102 (TSC2-deficient); 0.001 µM) [%] | relative viability (621-102 (TSC2-deficient); 0.01 µM) [%] | relative viability (621-102 (TSC2-deficient); 0.1 µM) [%] | relative viability (621-102 (TSC2-deficient); 1 µM) [%] | relative viability (621-102 (TSC2-deficient); 10 µM) [%] | relative viability (621-103 (TSC2-rescued); 0.0001 µM) [%] | relative viability (621-103 (TSC2-rescued); 0.001 µM) [%] | relative viability (621-103 (TSC2-rescued); 0.01 µM) [%] | relative viability (621-103 (TSC2-rescued); 0.1 µM) [%] | relative viability (621-103 (TSC2-rescued); 1 µM) [%] | relative viability (621-103 (TSC2-rescued); 10 µM) [%] |
| --- | --- | --- | --- | --- | --- | --- | --- | --- | --- | --- | --- | --- |
| C#Cc1cccc(Nc2ncnc3cc(OCCOC)c(OCCOC)cc23)c1 [Erlotinib] | 106.7 ± 1 | 102 ± 3.1 | 107.7 ± 1 | 103 ± 1.4 | 97.8 ± 1.9 | 96.7 ± 3.3 | 99.81 ± 0.92 | 101 ± 1.1 | 104 ± 2.2 | 101.3 ± 0.39 | 101 ± 2.7 | 96.6 ± 3.3 |
| COc1ccc2[nH]c([S@@+]([O-])Cc3ncc(C)c(OC)c3C)nc2c1 [Esomeprazole sodium (Nexium I.V.)] | 93.6 ± 1.3 | 107 ± 6.9 | 107 ± 3.4 | 97.9 ± 3.1 | 91.1 ± 1 | 88.632 ± 0.085 | 111 ± 0.41 | 99.3 ± 0.93 | 101.7 ± 0.45 | 112 ± 4 | 102 ± 2.5 | 86.24 ± 0.28 |
| COc1cc([C@@H]2c3cc4c(cc3[C@@H](O[C@@H]3O[C@@H]5CO[C@@H](C)O[C@H]5[C@H](O)[C@H]3O)[C@H]3COC(=O)[C@H]23)OCO4)cc(OC)c1O [Etoposide (Etopophos)] | 109.8 ± 0.44 | 108.1 ± 0.98 | 114 ± 3.7 | 104 ± 2.5 | 81.3 ± 5.1 | 54.6 ± 2.9 | 99.77 ± 0.28 | 98.19 ± 0.16 | 99.6 ± 1.2 | 98.7 ± 1 | 91.5 ± 2.3 | 55.6 ± 0.8 |
| CO[C@H]1C[C@@H]2CC[C@@H](C)[C@@](O)(O2)C(=O)C(=O)N2CCCC[C@H]2C(=O)O[C@H]([C@H](C)C[C@@H]2CC[C@@H](OCCO)[C@H](OC)C2)CC(=O)[C@H](C)/C=C(\C)[C@@H](O)[C@@H](OC)C(=O)[C@H](C)C[C@H](C)/C=C/C=C/C=C/1C [Everolimus (RAD001)] | 46.7 ± 2.2 | 56.4 ± 1.5 | 49.8 ± 4.2 | 52.7 ± 3.3 | 54.2 ± 3 | 50.3 ± 3.7 | 71.1 ± 3.2 | 69.7 ± 1.3 | 68.2 ± 1.6 | 71.6 ± 2 | 75.3 ± 2.6 | 67.6 ± 0.97 |
| O=S(=O)(c1cccc2cnccc12)N1CCCNCC1 [Fasudil HCl] | 95.7 ± 1.9 | 111.14 ± 0.069 | 100 ± 7.1 | 107.7 ± 0.97 | 110 ± 3.2 | 83.5 ± 3.1 | 102 ± 2.1 | 98.11 ± 0.26 | 99.94 ± 0.62 | 97.3 ± 1.3 | 97.052 ± 0.09 | 101.9 ± 0.26 |
| Cc1nc(-c2ccc(OCC(C)C)c(C#N)c2)sc1C(=O)O [Febuxostat] | 104 ± 2.3 | 104 ± 2.4 | 102.5 ± 0.48 | 105 ± 5.9 | 100.8 ± 0.75 | 99.9 ± 2.2 | 104 ± 2.5 | 100.5 ± 0.98 | 101 ± 2.4 | 102 ± 4 | 98.3 ± 0.27 | 101.3 ± 0.28 |
| CCOC(=O)C1=C(C)NC(C)=C(C(=O)OC)C1c1cccc(Cl)c1Cl (stereo unspecified) [Felodipine] | 103 ± 2.2 | 97.3 ± 5.4 | 101 ± 4.7 | 103 ± 1.5 | 106 ± 1.6 | 117 ± 4.6 | 104.4 ± 0.74 | 100.1 ± 0.68 | 104 ± 3.1 | 98.2 ± 1.4 | 100 ± 1.6 | 106 ± 2.3 |
| COC(=O)Nc1nc2cc(Sc3ccccc3)ccc2[nH]1 [Fenbendazole (Panacur)] | 114 ± 2 | 109.5 ± 0.17 | 98.4 ± 4.1 | 91.8 ± 1.4 | 38.2 ± 1.4 | 39.5 ± 0.88 | 108 ± 3.3 | 102 ± 3.8 | 110.5 ± 0.51 | 102 ± 2.8 | 44.28 ± 0.059 | 40.924 ± 0.025 |
| CC(C)C(=O)Oc1ccc(CO)cc1[C@H](CCN(C(C)C)C(C)C)c1ccccc1 [Fesoterodine fumarate (Toviaz)] | 97.3 ± 5.3 | 100.52 ± 0.035 | 102 ± 1.2 | 109 ± 3.6 | 93.13 ± 0.096 | 94.5 ± 1.9 | 104 ± 1.1 | 105 ± 3 | 106 ± 2.1 | 107 ± 5.6 | 101.2 ± 0.67 | 95.413 ± 0.0029 |
| CC(C)(C)NC(=O)[C@H]1CC[C@H]2[C@@H]3CC[C@H]4NC(=O)C=C[C@]4(C)[C@H]3CC[C@]12C [Finasteride] | 112 ± 1.9 | 114 ± 4 | 106 ± 2 | 99.13 ± 0.73 | 92.7 ± 2 | 92.5 ± 2.9 | 102.7 ± 0.88 | 101 ± 1.6 | 102.1 ± 0.43 | 101.2 ± 0.15 | 101.2 ± 0.59 | 99.6 ± 0.87 |
| CN1CC[C@H](c2c(O)cc(O)c3c(=O)cc(-c4ccccc4Cl)oc23)[C@H](O)C1 [Flavopiridol (Alvocidib)] | 104 ± 1.3 | 104.1 ± 0.59 | 95.5 ± 5 | 45.4 ± 1.9 | 11.3 ± 0.76 | 11.7 ± 0.13 | 103 ± 4.3 | 100.4 ± 0.89 | 102.2 ± 0.86 | 55.26 ± 0.43 | 17.8 ± 0.22 | 21.81 ± 0.19 |
| CN1CC[C@H](c2c(O)cc(O)c3c(=O)cc(-c4ccccc4Cl)oc23)[C@H](O)C1 [Flavopiridol HCl] | 103 ± 1.6 | 98.59 ± 0.27 | 93.1 ± 5.7 | 49.2 ± 0.89 | 10.5 ± 0.34 | 10.1 ± 1.1 | 91.4 ± 6.3 | 88 ± 1.4 | 90.7 ± 3.4 | 55.2 ± 0.46 | 13 ± 0.61 | 11 ± 0.25 |
| CN1CCN(c2c(F)cc3c(=O)c(C(=O)O)cn(CCF)c3c2F)CC1 [Fleroxacin (Quinodis)] | 104 ± 1.2 | 111 ± 3.5 | 102 ± 2.7 | 91.53 ± 0.47 | 90.9 ± 1.1 | 91.6 ± 4.7 | 96.7 ± 2.6 | 92.52 ± 0.83 | 92.3 ± 1.4 | 98.4 ± 1.5 | 105 ± 5 | 109 ± 1.7 |
| Nc1nc(=O)[nH]cc1F [Flucytosine (Ancobon)] | 92.9 ± 2.9 | 99.4 ± 1.2 | 103.85 ± 0.042 | 102.2 ± 0.19 | 98.4 ± 4.1 | 92.5 ± 3.2 | 105.5 ± 0.24 | 101 ± 3.4 | 104.5 ± 0.84 | 106 ± 1.2 | 103 ± 1.4 | 98.9 ± 4.4 |
| Nc1nc(F)nc2c1ncn2[C@@H]1O[C@H](CO)[C@@H](O)[C@@H]1O [Fludarabine (Fludara)] | 101 ± 3.9 | 92 ± 1.4 | 106 ± 1.3 | 100.6 ± 0.41 | 94.7 ± 5.7 | 86.22 ± 0.37 | 108 ± 4.5 | 92.6 ± 8.1 | 102 ± 1.6 | 102.9 ± 1 | 102.8 ± 0.34 | 86.6 ± 8 |
| Nc1nc(F)nc2c1ncn2[C@@H]1O[C@H](COP(=O)(O)O)[C@@H](O)[C@@H]1O [Fludarabine Phosphate] | 98.1 ± 1.6 | 105 ± 1.1 | 101.7 ± 0.47 | 106 ± 1.9 | 96.4 ± 7.2 | 94 ± 1.7 | 104 ± 2.1 | 104 ± 2.7 | 103.3 ± 0.34 | 102.6 ± 0.82 | 100 ± 1.7 | 89.1 ± 6.1 |
| CNCCC(Oc1ccc(C(F)(F)F)cc1)c1ccccc1 (stereo unspecified) [Fluoxetine HCl] | 101.3 ± 0.38 | 100 ± 1.8 | 109 ± 2.5 | 107 ± 2.1 | 99.3 ± 1.1 | 86.9 ± 2.2 | 100 ± 4.3 | 109 ± 2 | 106 ± 1.8 | 99.6 ± 1.9 | 104 ± 1.3 | 70.9 ± 2 |
| CC(C)n1c(/C=C/C(O)CC(O)CC(=O)O)c(-c2ccc(F)cc2)c2ccccc21 (stereo unspecified) [Fluvastatin Sodium] | 102 ± 1.5 | 106 ± 3.3 | 105 ± 1.1 | 101 ± 3.1 | 100 ± 2.8 | 73.38 ± 0.72 | 102 ± 2.2 | 95.8 ± 2.6 | 99.5 ± 4.6 | 100 ± 2.1 | 71.8 ± 4.7 | 32.19 ± 0.096 |

— the supplement of paper PMC8960247
